Measurements as given in publication PMC9841523 (Journal of Medicinal Chemistry, 2022).

Key:
[1] = test system: AKT2, AKT3; assay: KiNativ kinase panel; format: cell-based, human; conditions: 1 μM, MCF-7 Cells, ATP Loop
[2] = test system: CaMK2a, CaMK2b, CaMK2d, CaMK2g; assay: KiNativ kinase panel; format: cell-based; conditions: 1 μM, MCF-7 Cells, Lys2
[3] = target: T1, CDK2 (Homo sapiens, UniProt P24941); assay: KiNativ kinase panel; format: cell-based; conditions: 1 μM, MCF-7 Cells
T1 construct: purchased ActivX Biosciences (KiNativ)

[4] = target: T2, CK1g3 (Homo sapiens, UniProt Q9Y6M4); assay: KiNativ kinase panel; format: cell-based; conditions: 1 μM, MCF-7 Cells, Lys2
T2 construct: MCF7 cells were exposed to; endogenous in cells; host or cells: MCF7
T2 sequence (Q9Y6M4 whole entry): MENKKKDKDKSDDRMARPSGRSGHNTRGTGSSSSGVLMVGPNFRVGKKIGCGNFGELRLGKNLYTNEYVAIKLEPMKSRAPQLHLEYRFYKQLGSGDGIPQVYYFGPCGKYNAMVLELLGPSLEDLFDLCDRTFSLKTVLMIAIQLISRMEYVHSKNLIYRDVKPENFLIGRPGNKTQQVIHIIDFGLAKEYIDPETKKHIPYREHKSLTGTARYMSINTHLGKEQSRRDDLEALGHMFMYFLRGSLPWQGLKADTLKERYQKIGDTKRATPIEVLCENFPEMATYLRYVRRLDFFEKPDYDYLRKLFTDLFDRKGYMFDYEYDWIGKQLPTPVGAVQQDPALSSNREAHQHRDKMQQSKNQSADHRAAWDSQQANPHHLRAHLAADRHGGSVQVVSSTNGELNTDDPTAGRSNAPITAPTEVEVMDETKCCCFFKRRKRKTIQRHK

[5] = target: T3, EGFR (Homo sapiens, UniProt P00533); assay: KiNativ kinase panel; format: cell-based; conditions: 1 μM, MCF-7 Cells
T3 construct: MCF7 cells were exposed to; endogenous in cells; host or cells: MCF7
T3 sequence (P00533 25-1210): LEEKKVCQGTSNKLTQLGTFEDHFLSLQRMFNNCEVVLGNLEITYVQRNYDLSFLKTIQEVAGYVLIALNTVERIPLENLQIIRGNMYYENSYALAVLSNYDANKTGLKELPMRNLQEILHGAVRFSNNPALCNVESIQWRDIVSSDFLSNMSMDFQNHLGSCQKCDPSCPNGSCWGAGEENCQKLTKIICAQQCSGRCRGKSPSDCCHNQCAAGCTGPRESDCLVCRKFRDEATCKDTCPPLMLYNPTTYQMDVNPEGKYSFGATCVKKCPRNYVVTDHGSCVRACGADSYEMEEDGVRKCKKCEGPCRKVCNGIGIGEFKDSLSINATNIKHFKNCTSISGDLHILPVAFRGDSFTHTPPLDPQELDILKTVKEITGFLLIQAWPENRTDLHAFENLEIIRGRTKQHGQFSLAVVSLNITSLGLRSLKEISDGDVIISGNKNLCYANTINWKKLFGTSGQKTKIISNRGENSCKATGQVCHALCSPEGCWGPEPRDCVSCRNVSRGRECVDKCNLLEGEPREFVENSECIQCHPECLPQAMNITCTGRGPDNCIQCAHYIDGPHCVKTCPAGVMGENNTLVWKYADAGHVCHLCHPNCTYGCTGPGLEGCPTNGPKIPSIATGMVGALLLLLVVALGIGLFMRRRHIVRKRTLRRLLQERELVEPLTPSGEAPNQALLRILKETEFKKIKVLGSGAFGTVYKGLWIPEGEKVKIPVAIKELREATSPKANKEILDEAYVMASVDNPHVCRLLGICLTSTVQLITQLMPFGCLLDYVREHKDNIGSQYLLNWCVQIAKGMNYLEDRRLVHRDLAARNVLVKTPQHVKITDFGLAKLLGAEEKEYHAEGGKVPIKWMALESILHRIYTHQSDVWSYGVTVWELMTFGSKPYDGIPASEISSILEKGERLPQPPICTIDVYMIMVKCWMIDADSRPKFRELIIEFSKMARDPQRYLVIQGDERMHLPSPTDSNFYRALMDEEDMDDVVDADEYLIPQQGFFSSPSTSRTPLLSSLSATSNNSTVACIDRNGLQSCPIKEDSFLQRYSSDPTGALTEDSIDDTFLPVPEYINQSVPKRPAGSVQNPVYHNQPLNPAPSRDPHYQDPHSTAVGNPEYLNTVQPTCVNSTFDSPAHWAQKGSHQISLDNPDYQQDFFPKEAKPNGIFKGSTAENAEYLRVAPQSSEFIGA

[6] = test system: FYN, SRC, YES; assay: KiNativ kinase panel; format: cell-based, human; conditions: 1 μM, MCF-7 Cells, Activation Loop
[7] = test system: JNK1, JNK2, JNK3; assay: KiNativ kinase panel; format: cell-based, human; conditions: 1 μM, MCF-7 Cells, Lys2
[8] = target: T4, LATS2 (Homo sapiens, UniProt Q9NRM7); assay: KiNativ kinase panel; format: cell-based; conditions: 1 μM, MCF-7 Cells
T4 construct: endogenous in cells; host or cells: MCF7
T4 sequence (Q9NRM7 1-1088): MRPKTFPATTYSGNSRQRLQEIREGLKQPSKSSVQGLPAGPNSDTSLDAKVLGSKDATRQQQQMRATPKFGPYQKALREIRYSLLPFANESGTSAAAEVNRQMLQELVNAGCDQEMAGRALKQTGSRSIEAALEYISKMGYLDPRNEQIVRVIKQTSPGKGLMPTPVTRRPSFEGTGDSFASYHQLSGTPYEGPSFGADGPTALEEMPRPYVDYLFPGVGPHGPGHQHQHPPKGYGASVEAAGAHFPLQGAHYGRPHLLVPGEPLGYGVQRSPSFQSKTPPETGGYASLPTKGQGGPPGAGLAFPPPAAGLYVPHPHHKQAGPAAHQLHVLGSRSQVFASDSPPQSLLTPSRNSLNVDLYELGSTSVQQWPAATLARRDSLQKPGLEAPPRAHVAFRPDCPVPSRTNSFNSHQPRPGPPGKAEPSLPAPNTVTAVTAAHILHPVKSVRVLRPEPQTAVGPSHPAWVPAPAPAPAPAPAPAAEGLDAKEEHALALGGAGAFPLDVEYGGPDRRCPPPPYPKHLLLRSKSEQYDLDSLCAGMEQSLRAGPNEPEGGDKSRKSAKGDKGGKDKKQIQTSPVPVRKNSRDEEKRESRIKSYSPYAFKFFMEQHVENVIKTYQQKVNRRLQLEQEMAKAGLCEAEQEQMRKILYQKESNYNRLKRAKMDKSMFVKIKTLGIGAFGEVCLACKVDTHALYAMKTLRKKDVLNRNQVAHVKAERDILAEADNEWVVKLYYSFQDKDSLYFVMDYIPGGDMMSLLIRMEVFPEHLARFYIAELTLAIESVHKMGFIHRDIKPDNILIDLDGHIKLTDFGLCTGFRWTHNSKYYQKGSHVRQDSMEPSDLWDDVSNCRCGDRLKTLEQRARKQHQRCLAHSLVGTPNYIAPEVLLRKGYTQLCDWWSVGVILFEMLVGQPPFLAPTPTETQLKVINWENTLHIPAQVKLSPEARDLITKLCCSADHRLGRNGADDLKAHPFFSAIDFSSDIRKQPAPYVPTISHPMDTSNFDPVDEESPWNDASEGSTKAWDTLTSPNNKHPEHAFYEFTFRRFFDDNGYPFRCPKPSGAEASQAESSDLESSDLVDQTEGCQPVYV

[9] = target: T5, LOK (Homo sapiens, UniProt O94804); assay: KiNativ kinase panel; format: cell-based; conditions: 1 μM; MCF-7 Cells; Lys2; DLKAGNVLMTLEGDIR
T5 construct: endogenous in cells; host or cells: MCF7
T5 sequence (O94804 whole entry): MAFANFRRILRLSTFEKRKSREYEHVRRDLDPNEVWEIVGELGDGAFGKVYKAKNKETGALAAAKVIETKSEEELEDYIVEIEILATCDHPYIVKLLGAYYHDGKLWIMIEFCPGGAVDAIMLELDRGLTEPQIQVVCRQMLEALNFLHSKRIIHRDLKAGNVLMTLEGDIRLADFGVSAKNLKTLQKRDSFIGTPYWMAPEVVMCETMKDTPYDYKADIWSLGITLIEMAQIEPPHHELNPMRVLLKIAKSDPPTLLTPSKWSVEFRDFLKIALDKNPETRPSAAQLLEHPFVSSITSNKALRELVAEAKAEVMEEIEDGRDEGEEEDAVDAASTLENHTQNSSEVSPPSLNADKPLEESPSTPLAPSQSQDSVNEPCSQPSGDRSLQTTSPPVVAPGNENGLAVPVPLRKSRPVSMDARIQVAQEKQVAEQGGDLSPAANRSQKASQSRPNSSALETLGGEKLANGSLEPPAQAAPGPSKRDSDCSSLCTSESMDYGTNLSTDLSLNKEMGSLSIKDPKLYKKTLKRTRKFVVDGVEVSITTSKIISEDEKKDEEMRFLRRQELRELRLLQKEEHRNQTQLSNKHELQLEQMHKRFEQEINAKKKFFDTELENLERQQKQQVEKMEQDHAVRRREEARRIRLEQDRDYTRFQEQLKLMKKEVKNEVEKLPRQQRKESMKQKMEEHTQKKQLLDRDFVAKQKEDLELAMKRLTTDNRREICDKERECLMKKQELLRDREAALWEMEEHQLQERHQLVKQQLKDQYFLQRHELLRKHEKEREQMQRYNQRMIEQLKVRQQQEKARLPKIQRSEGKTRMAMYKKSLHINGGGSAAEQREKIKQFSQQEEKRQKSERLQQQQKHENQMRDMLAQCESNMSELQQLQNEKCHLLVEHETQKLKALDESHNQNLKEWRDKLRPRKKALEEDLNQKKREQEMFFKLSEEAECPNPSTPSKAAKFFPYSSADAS

[10] = test system: MAPKAPK2, MAPKAPK3; assay: KiNativ kinase panel; format: cell-based, human; conditions: 1 μM, MCF-7 Cells, Lys2
[11] = test system: MST4, YSK1; assay: KiNativ kinase panel; format: cell-based, human; conditions: 1 μM, MCF-7 Cells, Lys2
[12] = target: T6, NuaK2 (Homo sapiens, UniProt Q9H093); assay: KiNativ kinase panel; format: cell-based; conditions: 1 μM; MCF-7 Cells; Lys1; LVAIKSIR
T6 construct: purchased ActivX Biosciences (KiNativ)
T6 sequence (Q9H093 whole entry): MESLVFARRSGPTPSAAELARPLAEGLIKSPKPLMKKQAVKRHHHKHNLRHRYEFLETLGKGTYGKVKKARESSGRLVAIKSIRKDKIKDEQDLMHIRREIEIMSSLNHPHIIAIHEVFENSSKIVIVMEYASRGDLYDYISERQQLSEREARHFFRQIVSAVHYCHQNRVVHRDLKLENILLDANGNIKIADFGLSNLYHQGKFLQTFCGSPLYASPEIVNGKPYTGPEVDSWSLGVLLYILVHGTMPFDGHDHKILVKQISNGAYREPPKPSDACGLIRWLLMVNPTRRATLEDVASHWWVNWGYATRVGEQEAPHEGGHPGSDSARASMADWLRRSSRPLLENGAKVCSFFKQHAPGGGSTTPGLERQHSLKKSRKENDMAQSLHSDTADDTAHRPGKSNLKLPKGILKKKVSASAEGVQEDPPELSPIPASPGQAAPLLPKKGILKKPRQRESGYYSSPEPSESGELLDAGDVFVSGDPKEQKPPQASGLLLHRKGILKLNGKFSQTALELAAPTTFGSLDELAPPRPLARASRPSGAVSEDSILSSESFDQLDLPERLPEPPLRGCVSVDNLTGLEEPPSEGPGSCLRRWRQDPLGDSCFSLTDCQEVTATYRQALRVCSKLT

[13] = test system: p70S6K, p70S6Kb; assay: KiNativ kinase panel; format: cell-based, human; conditions: 1 μM, MCF-7 Cells, ATP Loop
[14] = target: T7, PKR (Homo sapiens, UniProt P19525); assay: KiNativ kinase panel; format: cell-based; conditions: 1 μM, MCF-7 Cells
T7 construct: MCF7 cells were exposed to; endogenous in cells; host or cells: MCF7
T7 sequence (P19525 whole entry): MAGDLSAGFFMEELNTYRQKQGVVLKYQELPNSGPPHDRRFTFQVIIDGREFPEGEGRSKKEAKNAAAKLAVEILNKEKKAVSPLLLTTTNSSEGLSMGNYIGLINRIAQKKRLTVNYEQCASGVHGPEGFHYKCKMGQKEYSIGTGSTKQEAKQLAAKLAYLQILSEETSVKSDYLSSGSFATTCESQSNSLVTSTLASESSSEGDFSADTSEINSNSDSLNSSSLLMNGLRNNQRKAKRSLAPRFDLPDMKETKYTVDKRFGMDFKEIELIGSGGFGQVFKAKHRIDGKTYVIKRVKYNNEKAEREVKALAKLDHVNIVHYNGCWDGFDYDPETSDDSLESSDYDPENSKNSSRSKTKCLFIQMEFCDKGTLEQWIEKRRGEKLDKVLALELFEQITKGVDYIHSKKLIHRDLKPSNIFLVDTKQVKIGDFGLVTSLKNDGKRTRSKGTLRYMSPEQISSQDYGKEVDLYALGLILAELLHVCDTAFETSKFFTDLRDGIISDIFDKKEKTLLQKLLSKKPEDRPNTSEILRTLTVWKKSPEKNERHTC

[15] = test system: TAO1, TAO3; assay: KiNativ kinase panel; format: cell-based, human; conditions: 1 μM, MCF-7 Cells, Lys2
[16] = target: T8, ULK3 (Homo sapiens, UniProt Q6PHR2); assay: KiNativ kinase panel; format: cell-based; conditions: 1 μM, MCF-7 Cells
T8 construct: endogenous in cells; host or cells: MCF7
T8 sequence (Q6PHR2 1-472): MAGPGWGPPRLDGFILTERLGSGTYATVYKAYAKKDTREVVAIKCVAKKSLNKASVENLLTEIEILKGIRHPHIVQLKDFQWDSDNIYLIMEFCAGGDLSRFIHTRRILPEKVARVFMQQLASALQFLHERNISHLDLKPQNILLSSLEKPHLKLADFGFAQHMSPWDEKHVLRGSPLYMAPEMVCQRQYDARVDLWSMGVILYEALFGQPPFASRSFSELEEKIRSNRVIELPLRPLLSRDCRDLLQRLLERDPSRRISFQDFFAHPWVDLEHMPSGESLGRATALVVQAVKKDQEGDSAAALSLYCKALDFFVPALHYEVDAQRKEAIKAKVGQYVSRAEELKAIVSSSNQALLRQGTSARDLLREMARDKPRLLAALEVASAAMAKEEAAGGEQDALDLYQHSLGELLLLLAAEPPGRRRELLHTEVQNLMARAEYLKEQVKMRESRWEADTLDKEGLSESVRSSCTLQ

[17] = target: hERG ion channel (Homo sapiens, UniProt Q12809); assay: in vitro hERG inhibition; conditions: for inhibition of the hERG ion channel: 10 µM
Chain of hERG ion channel (Q12809 whole entry): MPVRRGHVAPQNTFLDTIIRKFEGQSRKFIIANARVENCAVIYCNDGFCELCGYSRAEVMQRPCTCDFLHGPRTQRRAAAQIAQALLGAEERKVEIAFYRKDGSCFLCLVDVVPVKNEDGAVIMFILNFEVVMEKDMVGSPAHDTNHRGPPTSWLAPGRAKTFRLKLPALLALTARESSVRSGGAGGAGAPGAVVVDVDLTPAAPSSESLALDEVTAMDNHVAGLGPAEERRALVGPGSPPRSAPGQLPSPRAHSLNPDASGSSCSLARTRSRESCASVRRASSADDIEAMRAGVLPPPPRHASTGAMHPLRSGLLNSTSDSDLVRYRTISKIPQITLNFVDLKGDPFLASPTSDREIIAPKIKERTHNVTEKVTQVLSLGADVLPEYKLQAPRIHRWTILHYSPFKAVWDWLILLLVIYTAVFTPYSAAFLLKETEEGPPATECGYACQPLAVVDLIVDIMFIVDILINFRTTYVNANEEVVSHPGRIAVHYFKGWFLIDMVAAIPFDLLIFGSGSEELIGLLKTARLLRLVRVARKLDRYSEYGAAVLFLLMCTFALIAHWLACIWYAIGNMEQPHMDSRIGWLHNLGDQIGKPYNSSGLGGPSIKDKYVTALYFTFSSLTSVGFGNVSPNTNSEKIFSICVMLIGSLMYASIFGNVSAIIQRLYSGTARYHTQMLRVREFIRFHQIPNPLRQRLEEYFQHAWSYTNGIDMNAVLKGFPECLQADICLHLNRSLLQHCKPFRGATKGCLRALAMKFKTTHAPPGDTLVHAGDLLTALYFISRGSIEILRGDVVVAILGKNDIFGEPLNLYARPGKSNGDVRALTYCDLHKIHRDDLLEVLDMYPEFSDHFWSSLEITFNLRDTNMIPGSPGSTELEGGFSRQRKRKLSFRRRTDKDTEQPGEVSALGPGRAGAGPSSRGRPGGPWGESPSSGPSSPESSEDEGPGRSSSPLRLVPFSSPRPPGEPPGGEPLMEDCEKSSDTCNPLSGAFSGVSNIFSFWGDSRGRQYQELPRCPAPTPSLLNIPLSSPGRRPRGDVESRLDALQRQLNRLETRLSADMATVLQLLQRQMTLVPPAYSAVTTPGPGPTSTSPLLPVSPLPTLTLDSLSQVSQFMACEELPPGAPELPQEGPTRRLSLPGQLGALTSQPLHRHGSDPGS

[18] = test system: MCF-7 (PIK3CA^E545K) cell line-derived xenograft; assay: 28-day study in the MCF-7 CDX model; conditions: for tumor volume: MCF-7 CDX, once weekly ip, 28-day study, most significant at 3 or 10 mg/kg; for tolerability (body weight): up to 10 mg/kg ip once weekly
Procedure: Formulation containing transcutol/solutol HS15/H 2O (5/5/90, %w/w/v) was used, with a dose volume at 5 mL/kg.
Methods for xenograft studies.
MCF-7 xenograft studies. Female Balb/c nude mice (Shanghai Lingchang Biotechnology), 6–8 weeks of age, were inoculated subcutaneously in the right flank with MCF-7 (ECACC-
Three days prior to inoculation, mice were fed with drinking water containing β-estradiol (40 μg/mL). When mean tumor volume reached between 200–400 mm 3, mice were randomized into treatment groups (n = 12/group) for efficacy study, and tumor volume was measured twice weekly by caliper measurements for the duration of the study.
compounds were administered by ip injections at indicated doses, once weekly.

[19] = Activation Loop, IGDFGLVTSLKNDGKR

| Structure (SMILES) | KiNativ Kinase Panel Data ([3]; Lys1, LTGEVVALKK) | KiNativ Kinase Panel Data ([3]; Lys2, DLKPQNLLINTEGAIK) | KiNativ Kinase Panel Data ([5]; Lys1, IPVAIKELR) | KiNativ Kinase Panel Data ([8]; Lys2, DIKPDNILIDLDGHIK) | KiNativ Kinase Panel Data [9] | KiNativ Kinase Panel Data [12] | KiNativ Kinase Panel Data [14, 19] | KiNativ Kinase Panel Data ([14]; Lys1, TYVIKR) | KiNativ Kinase Panel Data ([14]; Lys2, DLKPSNIFLVDTK) | in vitro hERG inhibition (10 μM) [17] | inhibition of the hERG ion channel [17] | tumor volume [18] | tolerability (body weight) [18] | further results |
| --- | --- | --- | --- | --- | --- | --- | --- | --- | --- | --- | --- | --- | --- | --- |
| CO[C@H]1C[C@@H]2CC[C@@H](C)[C@@](O)(O2)C(=O)C(=O)N2CCCC[C@H]2C(=O)O[C@H]([C@H](C)C[C@@H]2CC[C@@H](OC(=O)NCCOCCOCCOCCOCCOCCOCCOCCOCCC(=O)NCCS(=O)(=O)c3ccc(C(=O)N4CCOc5ccc(-c6ccc(N)nc6)cc5C4)c(C)c3F)[C@H](OC)C2)C[C@@H](O)[C@H](C)/C=C(\C)[C@@H](O)[C@@H](OC)C(=O)[C@H](C)C[C@H](C)/C=C/C=C/C=C/1C [compound 40] | -29.1 | -40.9 | -27.8 | -1.4 | -19.4 | 16.0 | 17.4 | 9.6 | -32.5 | 6% | low | reduction in tumor volume | acceptable tolerability profile | KiNativ Kinase Panel Data ([1]; GTFGKVILVR): -101.1; KiNativ Kinase Panel Data ([2]; DLKPENLLLASK): -30.6; KiNativ Kinase Panel Data ([4]; DVKPENFLIGRPGNK): -6.6; KiNativ Kinase Panel Data ([5]; Activation Loop, LLGAEEKEYHAEGGKVPIK): -40.0; KiNativ Kinase Panel Data ([6]; QGAKFPIKWTAPEAALYGR): -28.5; KiNativ Kinase Panel Data ([7]; DLKPSNIVVK): -9.5; KiNativ Kinase Panel Data ([8]; Lys1, VDTHALYAMKTLR): -0.8; KiNativ Kinase Panel Data ([10]; DVKPENLLYTSK): -27.1; KiNativ Kinase Panel Data ([11]; DIKAANVLLSEQGDVK): -10.1; KiNativ Kinase Panel Data ([13]; GGYGKVFQVR): -4.7; KiNativ Kinase Panel Data ([15]; DIKAGNILLTEPGQVK): -29.7; KiNativ Kinase Panel Data ([16]; Lys1, EVVAIKCVAK): -22.8; KiNativ Kinase Panel Data ([16]; Lys2, NISHLDLKPQNILLSSLEKPHLK): -5.4 |
| CO[C@H]1C[C@@H]2CC[C@@H](C)[C@@](O)(O2)C(=O)C(=O)N2CCCC[C@H]2C(=O)O[C@H]([C@H](C)C[C@@H]2CC[C@@H](OC(=O)NCCOCCOCCOCCOCCOCCOCCOCCOCCC(=O)N3CCc4cc(Cn5nc(-c6ccc7oc(N)nc7c6)c6c(N)ncnc65)ccc4C3)[C@H](OC)C2)C[C@@H](O)[C@H](C)/C=C(\C)[C@@H](O)[C@@H](OC)C(=O)[C@H](C)C[C@H](C)/C=C/C=C/C=C/1C [compound 38] | 1.0 | 13.1 | -7.4 | 22.9 | -65.4 | 18.8 | 12.1 | 15.2 | 11.0 | 16% | low | reduction in tumor volume | acceptable tolerability profile | KiNativ Kinase Panel Data ([1]; […]): -13.5; KiNativ Kinase Panel Data ([2]; […]): 26.2; KiNativ Kinase Panel Data ([4]; […]): 13.2; KiNativ Kinase Panel Data ([5]; Activation Loop, […]): -1.8; KiNativ Kinase Panel Data ([6]; […]): -6.3; KiNativ Kinase Panel Data ([7]; […]): 13.8; KiNativ Kinase Panel Data ([8]; Lys1, […]): -20.5; KiNativ Kinase Panel Data ([10]; […]): -19.9; KiNativ Kinase Panel Data ([11]; […]): 10.5; KiNativ Kinase Panel Data ([13]; […]): 20.1; KiNativ Kinase Panel Data ([15]; […]): -1.7; KiNativ Kinase Panel Data ([16]; Lys1, […]): 0.5; KiNativ Kinase Panel Data ([16]; Lys2, […]): 11.9 |
